Results taken from patent US8962598B2, “1,2-dihydro-4-hydroxy-2-oxo-quinoline-3-carboxanilides as AHR activators” (Immunahr AB, priority 2010, dated 2015).
In brackets after ≈: the same amount, converted by molar mass.

Tests used:
[1] = Solubility measurements in 0.2 M phosphate buffer pH 7.4; type: physicochemical; settings: 0.2 M phosphate buffer pH 7.4, ambient temperature, results from two dilutions; for Solubility: 24 h; for solubility at 24 h: phosphate buffer, pH 7.4, aqueous buffer, thermodynamic from solid
Experimental: Solubilities of a di- and a mono-acylated compound were measured in 0.2 M phosphate buffer pH 7.4 and compared with the solubility of the corresponding non-acylated compound.
Saturated compound solutions were prepared by mixing the compounds and the buffer solution at ambient temperature for 24 h followed by separation of the aqueous solution by centrifugation. Standard solutions of compounds (1.00 mg/mL) were prepared in DMSO.
The compound concentrations were measured by HPLC-MS/UV (Waters Alliance 2790 Separations Module/996 PDA detector/Micromass Quattro Micro) after appropriate dilutions of the aqueous saturated solutions ( 1/10 and 1/100) and the standard solutions ( 1/100, 1/200, and 1/1000), respectively, with mobile phase solvent.

[2] = system: EAE in female Dark Agouti (DA) rats; assay: Experimental autoimmune encephalomyelitis (EAE) MS model in rats; type: in vivo, rat; settings: FIG. 1
Experimental: EAE was induced day 0 in female Dark Agouti (DA) rats with subcutaneous injection of spinal cord homogenate (SCH, approximately 2 mg, from naive rats) emulsified in incomplete Freunds adjuvant (IFA, total volume 100 ul per rat) at the base of the tail. Disease was evaluated daily from day 5 until the end of the experiment (day 22) according to following criteria: 0=healthy, 1=tail weakness, 2=tail paralysis, 3=tail paralysis and mild waddle, 4=tail paralysis and severe waddle, 5=tail paralysis and paralysis of one limb, 6=tail paralysis and paralysis of both hind limbs, 7=tetraparesis or paralysis of three limbs, and 8=premorbid or dead. Statistical analysis was performed using Prism 5 for Mac OS X (GraphPad Software, San Diego, Calif., USA).
Treatment was initiated day 0 after EAE induction with following treatment injections administered day 3, 6, and 9. The dose was administered as a 500 uL corn oil solution subcutaneously at the lower back. Treatment groups were mixed in all cages to avoid cage effects.
Control (vehicle, corn oil, Sigma Aldrich), 11 animals
Cyclosporin A (positive control, Sigma Aldrich), 10 mg/kg, first dissolved in 70% EtOH to 50 mg/mL, 11 animals
Compound 9 (N-acetyl-N-phenyl-4-acetoxy-5-chloro-1,2-dihydro-1-methyl-2-oxo-quinoline-3-carboxamide, Example 74), 1 mg/kg, 10 animals

human AhR = biological target: T1, human AhR (Homo sapiens, UniProt P35869); assay: Activation of human AhR, GeneBLAzer CYP1A1-bla LS-180 beta-lactamase reporter-gene assay; type: cell-based; settings: assay reference compound (control activator)
T1 construct: host or cells: GeneBLAzer CYP1A1-bla LS-180 cell line
T1 sequence (P35869 11-848): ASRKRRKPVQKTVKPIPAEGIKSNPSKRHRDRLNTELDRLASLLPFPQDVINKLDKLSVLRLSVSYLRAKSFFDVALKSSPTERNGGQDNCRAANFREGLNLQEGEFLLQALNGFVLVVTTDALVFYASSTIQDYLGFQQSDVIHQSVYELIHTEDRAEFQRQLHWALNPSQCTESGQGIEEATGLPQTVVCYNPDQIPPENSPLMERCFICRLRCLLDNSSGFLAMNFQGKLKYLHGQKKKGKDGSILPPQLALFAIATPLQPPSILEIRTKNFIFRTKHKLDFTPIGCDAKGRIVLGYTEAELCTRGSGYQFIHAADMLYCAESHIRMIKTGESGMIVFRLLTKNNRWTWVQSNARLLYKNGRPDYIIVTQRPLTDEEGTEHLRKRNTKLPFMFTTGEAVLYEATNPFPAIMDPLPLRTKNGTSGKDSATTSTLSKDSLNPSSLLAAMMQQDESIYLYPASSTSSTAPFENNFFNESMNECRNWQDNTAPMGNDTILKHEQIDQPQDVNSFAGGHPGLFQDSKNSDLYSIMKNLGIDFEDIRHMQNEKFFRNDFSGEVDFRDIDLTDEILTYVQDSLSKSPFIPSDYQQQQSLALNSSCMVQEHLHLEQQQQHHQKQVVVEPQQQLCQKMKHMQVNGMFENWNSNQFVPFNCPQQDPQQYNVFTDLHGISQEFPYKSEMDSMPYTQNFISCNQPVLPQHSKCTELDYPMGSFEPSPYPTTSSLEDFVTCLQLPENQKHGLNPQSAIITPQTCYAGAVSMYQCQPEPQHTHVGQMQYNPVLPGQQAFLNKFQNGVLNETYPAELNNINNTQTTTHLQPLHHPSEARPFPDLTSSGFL
Experimental: Activation of the aryl hydrocarbon receptor can be measured in cell-based reporter-gene assays, which consist of cell lines containing the aryl hydrocarbon recptor and transfected with a reporter gene regulated by activated Ahr via an XRE (xenobiotic response element). AhR activation will thus result in an enhanced expression of the reporter protein (e.g. luciferase) which functional activity can be measured.
Activation of human AhR was measured in the GeneBLAzer® CYP1A1-bla LS-180 cell line (Invitrogen Corporation, Madison, www.invitrogen.com/drugdiscovery) using a beta-lactamase reporter gene (bla) combined with a FRET-enabled substrate sensitive to bla expression.
CYP1A1-bla LS-180 cells are harvested and suspended in Assay Media (OPTI-MEM, 0.5% dialyzed FBS, 0.1 mM NEAA, 1 mM Sodium Pyruvate, 100 U/mL/100 μg/mL Pen/Strep) to a concentration of 625,000 cells/mL. 32 μL of cell suspension (20,000 cells) is added to each well of a 384-well Poly-D-Lysine assay plate. Cells in assay media are incubated for 16-24 hours in the plate at 37° C./5% CO2 in a humidified incubator. 4 μL of a 10× serial dilution of beta-naphthoflavone (control activator starting concentration, 100,000 nM) or compounds are added to appropriate wells. 4 μL of Assay Media is added to all wells to bring the final assay volume to 40 μL. […] The plate is read on a fluorescence plate reader. […]

SMILES | Solubility [1] | solubility at 24 h [1] | other results
CC(=O)Oc1c(C(=O)N(C(C)=O)c2ccccc2)c(=O)n(C)c2ccccc12 [Compound 1, N-acetyl-N-phenyl-4-acetoxy-1,2-dihydro-1-methyl-2-oxo-quinoline-3-carboxamide] | 38 µg/mL (≈ 100 µM) | 21 µg/mL (≈ 55.5 µM) | 
CC(=O)Oc1c(C(=O)Nc2ccccc2)c(=O)n(C)c2ccccc12 [Compound 2, N-phenyl-4-acetoxy-1,2-dihydro-1-methyl-2-oxo-quinoline-3-carboxamide] | 221 µg/mL (≈ 657 µM) | 186 µg/mL (≈ 553 µM) | 
Cn1c(=O)c(C(=O)Nc2ccccc2)c(O)c2ccccc21 [Compound 3, N-phenyl-1,2-dihydro-4-hydroxy-1-methyl-2-oxo-quinoline-3-carboxamide, reference compound] |  | < 1 µg/mL | 
CC(=O)Oc1c(C(=O)N(C(C)=O)c2ccccc2)c(=O)n(C)c2cccc(Cl)c12 [Compound 9, N-acetyl-N-phenyl-4-acetoxy-5-chloro-1,2-dihydro-1-methyl-2-oxo-quinoline-3-carboxamide] |  |  | severity of the first disease period after discontinuation of treatment ([2]; 1 mg/kg s.c. day 0, 3, 6 and 9, versus vehicle control): lower than for vehicle control treated animals; EAE development (clinical score) ([2]; 1 mg/kg s.c. in corn oil day 0, 3, 6 and 9, DA rats): efficiently prevented EAE development
O=c1cc(-c2ccccc2)oc2ccc3ccccc3c12 [beta-naphthoflavone] |  |  | EC50 (human AhR): 2090 nM
